The assay relates to Key Broadleaf and Grass Weed as well as Crop Species. Description: Pre-Emergent Test I: preemergent herbicidal activity, herbicidal effect rating 14 days after treatment (Table 6). The class given is in vivo. Conditions: for Visual Growth Reduction (%) 14 Days After Application ECHCG: barnyardgrass (Echinochloa crus-galli); for Visual Growth Reduction (%) 14 Days After Application SETFA: giant foxtail (Setaria faberi); for Visual Growth Reduction (%) 14 Days After Application IPOHE: ivyleaf morningglory (Ipomoea hederecea); for Visual Growth Reduction (%) 14 Days After Application HELAN: sunflower (Helianthus annuus); for Visual Growth Reduction (%) 14 Days After Application AVEFA: wild oats (Avena fatua). Here is the method: Herbicidal evaluations were made visually on a scale of 0 to 100 where 0 represents no activity and 100 represents complete plant death. Pre-Emergent Test I: Seeds of test species were planted into round plastic pots (5-inch diameter) containing sandy loam soil. After planting, all pots were sub-irrigated 16 h prior to compound application. Compounds were dissolved in a 97:3 v/v mixture of acetone and DMSO and diluted to the appropriate concentration in a final application solution containing water, acetone, isopropanol, DMSO and Agri-dex (crop oil concentrate) in a 59:23:15:1.0:1.5 v/v ratio and 0.02% w/v (weight/volume) of Triton X-155 to obtain the spray solution containing the highest application rate. The high application rate was serial diluted with the above application solution to provide delivery of the compound at rates ½×, ¼× and ⅛× of the highest rate (equivalent to 4.0, 2.0, 1.0, and 0.5 kg/ha, respectively). Formulated compound (2.7 mL) was applied pipetted evenly over the soil surface followed by incorporation with water (15 mL). Following treatment, pots were returned to the greenhouse for the duration of the experiment. The greenhouse was programmed for an approximate 15 h photoperiod which was maintained at about 23-29° C. during the day and 22-28° C. during the night. Nutrients and water were added on a regular basis through surface irrigation and supplemental lighting was provided with overhead metal halide 1000-Watt lamps as necessary. Herbicidal effect ratings were obtained 14 days after treatment. All evaluations were made relative to appropriate controls on a scale of 0 to 100 where 0 represents no herbicidal effect and 100 represents plant death or lack of emergence from the soil and are presented as indicated in Table 4.

Regarding `COC(=O)c1nc(-c2cccc3c2OCO3)c(F)c(N)c1Cl` [Compound 71, Methyl 4-amino-6-(benzo[d][1,3]dioxol-4-yl)-3-chloro-5-fluoropicolinate], under “4 kg ai/ha”, the “Visual Growth Reduction (%) 14 Days After Application ECHCG” value is given as “F (30-44)”, the “Visual Growth Reduction (%) 14 Days After Application SETFA” value is recorded as “G (0-29)”, the “Visual Growth Reduction (%) 14 Days After Application IPOHE” value was “E (45-59)” and the “Visual Growth Reduction (%) 14 Days After Application HELAN” value is “A (95-100)”. For the same molecule, the “Visual Growth Reduction (%) 14 Days After Application AVEFA” value (4 kg ai/ha) is reported as “F (30-44)”.
Regarding `Nc1c(F)c(-c2cccc3c2OC(F)(F)O3)nc(C(=O)O)c1Cl` [Compound 74], for the setting “3.96 kg ai/ha”, the “Visual Growth Reduction (%) 14 Days After Application ECHCG” value was “A (95-100)”, the “Visual Growth Reduction (%) 14 Days After Application SETFA” value is “E (45-59)”, the “Visual Growth Reduction (%) 14 Days After Application IPOHE” value is given as “D (60-74)” and the “Visual Growth Reduction (%) 14 Days After Application HELAN” value is “A (95-100)”. Besides, the “Visual Growth Reduction (%) 14 Days After Application AVEFA” value (3.96 kg ai/ha) was “D (60-74)”.
As for `COC(=O)c1nc(-c2cccc3c2OC(F)(F)O3)c(F)c(N)c1Cl` [Compound 73], under “3.96 kg ai/ha”, the “Visual Growth Reduction (%) 14 Days After Application ECHCG” value was “G (0-29)”, the “Visual Growth Reduction (%) 14 Days After Application SETFA” value is given as “G (0-29)”, the “Visual Growth Reduction (%) 14 Days After Application IPOHE” value was “C (75-84)” and the “Visual Growth Reduction (%) 14 Days After Application HELAN” value was “A (95-100)”. For the same molecule, under “3.96 kg ai/ha”, the “Visual Growth Reduction (%) 14 Days After Application AVEFA” value was “G (0-29)”.
As for `Nc1c(F)c(-c2cccc3c2OCO3)nc(C(=O)O)c1Cl` [Compound 72, 4-Amino-6-(benzo[d][1,3]dioxol-4-yl)-3-chloro-5-fluoropicolinic acid], for the setting “4 kg ai/ha”, the “Visual Growth Reduction (%) 14 Days After Application ECHCG” value is “C (75-84)”, the “Visual Growth Reduction (%) 14 Days After Application SETFA” value was “G (0-29)”, the “Visual Growth Reduction (%) 14 Days After Application IPOHE” value was “G (0-29)” and the “Visual Growth Reduction (%) 14 Days After Application HELAN” value is on record as “A (95-100)”. Further, the “Visual Growth Reduction (%) 14 Days After Application AVEFA” value (4 kg ai/ha) is “D (60-74)”.

These data come from patent US9149038B2, “4-amino-6-(heterocyclic)picolinates and 6-amino-2-(heterocyclic)pyrimidine-4-carboxylates and their use as herbicides” (Dow AgroSciences LLC, priority 2013, dated 2015).
